The values below come from BindingDB's records for PubMed 7562491 (Zeneca Pharmaceuticals, 1995).

By Ki is commonly meant the dissociation constant of the complex between target and ligand, obtained from inhibition or displacement.

Assay [1] deals with T1, Substance-K receptor (Homo sapiens, UniProt P21452).
T1 sequence (P21452 whole entry): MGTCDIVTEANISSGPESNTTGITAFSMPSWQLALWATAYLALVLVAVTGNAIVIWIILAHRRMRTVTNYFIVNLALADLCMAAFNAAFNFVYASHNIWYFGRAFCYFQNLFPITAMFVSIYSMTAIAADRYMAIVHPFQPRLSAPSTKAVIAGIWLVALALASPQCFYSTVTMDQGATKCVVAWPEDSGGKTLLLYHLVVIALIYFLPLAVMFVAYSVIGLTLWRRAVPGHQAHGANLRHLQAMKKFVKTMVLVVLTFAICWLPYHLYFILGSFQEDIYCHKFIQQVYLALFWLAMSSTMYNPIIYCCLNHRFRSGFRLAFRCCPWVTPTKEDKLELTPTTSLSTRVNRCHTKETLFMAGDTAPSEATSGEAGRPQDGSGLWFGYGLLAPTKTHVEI

Assay [2] deals with T2, Substance-K receptor (Mesocricetus auratus, UniProt P51144).
T2 sequence (P51144 whole entry): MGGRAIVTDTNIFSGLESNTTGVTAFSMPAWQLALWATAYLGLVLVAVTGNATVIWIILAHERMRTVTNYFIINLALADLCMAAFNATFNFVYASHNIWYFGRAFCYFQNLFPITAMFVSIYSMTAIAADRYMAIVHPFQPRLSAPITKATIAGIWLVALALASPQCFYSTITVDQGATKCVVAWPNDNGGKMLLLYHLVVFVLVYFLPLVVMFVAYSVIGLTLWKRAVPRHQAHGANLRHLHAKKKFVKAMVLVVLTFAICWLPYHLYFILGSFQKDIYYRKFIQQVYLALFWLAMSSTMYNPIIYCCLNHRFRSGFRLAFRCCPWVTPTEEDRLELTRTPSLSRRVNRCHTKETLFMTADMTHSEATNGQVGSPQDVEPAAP

A further assay addresses Substance-P receptor (Cavia porcellus, UniProt P30547).

Values joined by “and” are separate entries in the source; they are usually repeats but may differ in a detail not shown here. Equal values may be shown once.

Chain of Substance-P receptor (P30547 whole entry): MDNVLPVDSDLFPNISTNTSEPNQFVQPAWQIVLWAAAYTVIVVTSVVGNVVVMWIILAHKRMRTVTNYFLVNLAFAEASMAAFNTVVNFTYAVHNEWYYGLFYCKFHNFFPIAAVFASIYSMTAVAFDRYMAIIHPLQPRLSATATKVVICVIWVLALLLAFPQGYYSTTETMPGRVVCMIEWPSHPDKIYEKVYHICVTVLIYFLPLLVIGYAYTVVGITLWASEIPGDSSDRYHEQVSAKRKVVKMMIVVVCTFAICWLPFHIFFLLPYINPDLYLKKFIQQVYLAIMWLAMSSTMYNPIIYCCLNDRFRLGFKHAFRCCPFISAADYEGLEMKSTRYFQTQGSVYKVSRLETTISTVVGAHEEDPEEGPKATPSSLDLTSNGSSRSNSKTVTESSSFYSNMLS

As to `CC(C)N1Cc2c(Nc3ccc(Cl)cc3)nc(N3CCN(C(=O)Cc4[nH]c(=O)[nH]c4O)CC3)nc2C1=O` [COMPOUND I], the Ki on Substance-K receptor [1] is 188 nM; on Substance-K receptor [2], 18 nM and 17 nM.
For the molecule `O=C1c2nc(N3CCOCC3)nc(Nc3ccc(Cl)cc3)c2CN1CCN1CCOCC1` [COMPOUND II], the Ki is 187 nM at Substance-K receptor [1]; 41 nM and 39 nM at Substance-K receptor [2].
Regarding `CC(N=O)C(=O)N1CCN(c2nc(Nc3ccc(Cl)cc3)c3c(n2)C(=O)N(C(C)C)C3)CC1` (configuration not stated) [ZM253,270], the Ki on Substance-K receptor [1] was 105 nM; at Substance-K receptor [2], 2.2 nM and 2 nM; on Substance-P receptor it was 9770 nM.
